Data from patent publication US12385839B2, “Use of protein in predicting drug properties” (priority 2021, dated 2025).
pKd: −log10 of the molar value. “And” between values parts separate entries of the source, which are not always exact repeats. Equal values may be shown once. Read-outs that look alike come from different tables or passages of the source.

Assays:
[1] = cited from earlier work; for LD50: modelling table; for Toxicity: toxicity grade by LD50, trailing figure = number of pesticides in group
[2] = biological target: T1, human serum albumin (HSA) (Homo sapiens, UniProt P02768); assay: Circular dichroism spectrum, secondary structure (α-helix content) of HSA; settings: HSA 2×10^−6 M
T1 sequence (P02768 25-609): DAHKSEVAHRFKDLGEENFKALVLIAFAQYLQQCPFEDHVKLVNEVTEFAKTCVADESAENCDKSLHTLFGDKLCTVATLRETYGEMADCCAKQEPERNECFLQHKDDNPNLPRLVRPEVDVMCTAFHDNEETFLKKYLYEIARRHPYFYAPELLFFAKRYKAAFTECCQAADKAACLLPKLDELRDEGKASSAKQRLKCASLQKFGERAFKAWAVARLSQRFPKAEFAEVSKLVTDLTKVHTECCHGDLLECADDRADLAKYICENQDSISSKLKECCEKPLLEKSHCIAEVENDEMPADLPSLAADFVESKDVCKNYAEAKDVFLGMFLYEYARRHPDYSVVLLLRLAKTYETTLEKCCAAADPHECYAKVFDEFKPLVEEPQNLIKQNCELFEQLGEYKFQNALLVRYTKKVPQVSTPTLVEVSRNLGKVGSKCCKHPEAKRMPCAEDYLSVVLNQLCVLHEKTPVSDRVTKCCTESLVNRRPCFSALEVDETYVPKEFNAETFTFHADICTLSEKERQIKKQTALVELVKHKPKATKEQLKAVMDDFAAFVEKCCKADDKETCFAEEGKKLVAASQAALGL
In short: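 CD spectra of HSA held at 2×10^−6 M with pesticide at (0-20)×10^−6 M, 1 mm path, after 2–5 min preheating. α-Helix content derived from mean residue ellipticity at 208 nm (585 residues).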

[3] = biological target: T1, human serum albumin (HSA); assay: Fluorescence emission spectrum (quenching) of HSA with carbamate pesticides; assay type: binding; settings: for Kq / Ksv / n (number of binding sites) / pKd / Ka (binding constant): pH 7.4; for R (binding distance): Förster energy transfer; for fluorescence of HSA quenched by pesticide: titration of pesticide; for ΔH^0 / ΔS^0: Van't Hoff, 296-310 K
In short: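 Fluorescence quenching of HSA by carbamate pesticides was measured. HSA was held at 5×10^−7 M and pesticide was titrated from (0-105)×10^−7 M. Samples were preheated for 3 minutes, excited at 280 nm with 15 nm slits, and emission was recorded from 300-500 nm. Inner-filter effects were corrected. Binding site number n came from log[(F0−F)/F]=log Ka+nlog[Q].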

| Molecule | Toxicity [1] | α-helix contents ([2]; 5:1 (Pesticide:HSA)) [%] | α-helix contents ([2]; 10:1 (Pesticide:HSA)) [%] | Ksv (37°) ([3]; 37°, modelling table) | ΔG^0 ([3]; 296 K) [kcal/mol] | Kq ([3]; 296 K) | Ksv ([3]; 296 K) | n (number of binding sites) ([3]; 296 K) | ΔG^0 ([3]; 303 K) [kcal/mol] | Kq ([3]; 303 K) | Ksv ([3]; 303 K) | n (number of binding sites) ([3]; 303 K) | ΔG^0 ([3]; 310 K) [kcal/mol] | R (binding distance) ([3]; 310 K) [nm] | Kq ([3]; 310 K) | Ksv ([3]; 310 K) | n (number of binding sites) ([3]; 310 K) | fluorescence of HSA quenched by pesticide ([3]; 310 K) | ΔH^0 [3] [kcal/mol] | ΔS^0 [3] [J · mol^−1 · K^−1] | also measured |
| --- | --- | --- | --- | --- | --- | --- | --- | --- | --- | --- | --- | --- | --- | --- | --- | --- | --- | --- | --- | --- | --- |
| CNC(=O)Oc1ccccc1OC(C)C [Propoxur, propoxur] | Highly | 50.121 | 49.341 | 50525.98687 | -4.1912 | 3.425 ± 0.132 10^12 M^−1s^−1 | 3.425 ± 0.132 10^4 M^−1 | 0.706 ± 0.014 | -4.5607 | 4.353 ± 0.121 10^12 M^−1s^−1 | 4.353 ± 0.121 10^4 M^−1 | 0.729 ± 0.013 | -4.93 | 3.138 | 5.053 ± 0.120 10^12 M^−1s^−1 | 5.053 ± 0.120 10^4 M^−1 | 0.757 ± 0.011 | quenched | 11.43 | 220.816 | LD50 [1]: 41 mg/kg; ΔG(37°) ([3]; 37°, modelling table): −20.63; pKd ([3]; Ka (binding constant), 296 K): 3.10; pKd ([3]; Ka (binding constant), 303 K): 3.28; pKd ([3]; Ka (binding constant), 310 K): 3.48; Binding distance/r ([3]; modelling table): 3.138; Number of binding sites/n ([3]; modelling table): 0.7565 |
| CNC(=O)ON=C(CSC)C(C)(C)C [Thiofanox, thiofanox] | Highly | 48.904 | 48.180 | 58762.03726 | -4.2899 | 3.871 ± 0.035 10^12 M^−1s^−1 | 3.871 ± 0.035 10^4 M^−1 | 0.714 ± 0.014 | -4.5667 | 4.728 ± 0.064 10^12 M^−1s^−1 | 4.728 ± 0.064 10^4 M^−1 | 0.725 ± 0.005 | -4.8435 | 1.883 | 5.876 ± 0.198 10^12 M^−1s^−1 | 5.876 ± 0.198 10^4 M^−1 | 0.730 ± 0.003 | quenched | 7.4152 | 165.452 | LD50 [1]: 8.5 mg/kg; ΔG(37°) ([3]; 37°, modelling table): −20.27; pKd ([3]; Ka (binding constant), 296 K): 3.16; pKd ([3]; Ka (binding constant), 303 K): 3.30; pKd ([3]; Ka (binding constant), 310 K): 3.41; Binding distance/r ([3]; modelling table): 1.883; Number of binding sites/n ([3]; modelling table): 0.7299 |
| CNC(=O)O/N=C(\CS(C)(=O)=O)C(C)(C)C [Thiofanox-sulfone, thiofanox sulfone] | Highly | 51.076 | 50.482 | 55736.87796 and 53392.17364 | -4.3031 | 3.906 ± 0.043 10^12 M^−1s^−1 | 3.906 ± 0.043 10^4 M^−1 | 0.719 ± 0.011 | -4.9596 | 4.102 ± 0.034 10^12 M^−1s^−1 | 4.102 ± 0.034 10^4 M^−1 | 0.786 ± 0.008 | -5.6159 | 2.907 | 5.574 ± 0.138 10^12 M^−1s^−1 | 5.574 ± 0.138 10^4 M^−1 | 0.848 ± 0.004 | quenched | 23.451 | 392.314 | Ka (binding constant) ([3]; 296 K): (1.559 ± 0.162) × 10^3 M^−1; Ka (binding constant) ([3]; 303 K): (3.514 ± 0.247) × 10^3 M^−1; Ka (binding constant) ([3]; 310 K): (9.450 ± 0.597) × 10^3 M^−1; Number of binding sites/n ([3]; modelling table): 0.8476 and 0.7456 |
| CNC(=O)Oc1cc(C)cc(C)c1 [XMC, 3,5-xylyl methylcarbamate] | Moderately | 55.392 | 54.416 | 48304.67460 | -4.4097 | 4.145 ± 0.187 10^12 M^−1s^−1 | 4.145 ± 0.187 10^4 M^−1 | 0.734 ± 0.005 | -4.9309 | 4.362 ± 0.151 10^12 M^−1s^−1 | 4.362 ± 0.151 10^4 M^−1 | 0.779 ± 0.012 | -5.4522 | 2.033 | 4.830 ± 0.108 10^12 M^−1s^−1 | 4.830 ± 0.108 10^4 M^−1 | 0.832 ± 0.006 | quenched | 17.634 | 311.582 | LD50 [1]: 245 mg/kg; ΔG(37°) ([3]; 37°, modelling table): −22.81; pKd ([3]; 296 K, read-out: Ka (binding constant)): 3.27; pKd ([3]; 303 K, read-out: Ka (binding constant)): 3.53; pKd ([3]; 310 K, read-out: Ka (binding constant)): 3.86; Binding distance/r ([3]; modelling table): 2.033; Number of binding sites/n ([3]; modelling table): 0.8317 |
| Trimethacarb | Moderately | 52.233 | 48.283 | 47778.50539 | -4.0289 | 3.043 ± 0.160 10^12 M^−1s^−1 | 3.043 ± 0.160 10^4 M^−1 | 0.694 ± 0.002 | -4.3162 | 4.204 ± 0.100 10^12 M^−1s^−1 | 4.204 ± 0.100 10^4 M^−1 | 0.696 ± 0.005 | -4.6037 | 2.954 | 4.778 ± 0.093 10^12 M^−1s^−1 | 4.778 ± 0.093 10^4 M^−1 | 0.713 ± 0.001 | quenched | 8.1233 | 171.775 | LD50 [1]: 178 mg/kg; Ka (37°) ([3]; 37°, modelling table): 1782; ΔG(37°) ([3]; 37°, modelling table): −19.26; Ka (binding constant) ([3]; 296 K): (9.546 ± 0.118) × 10^2 M^−1; Ka (binding constant) ([3]; 303 K): (1.268 ± 0.092) × 10^3 M^−1; Ka (binding constant) ([3]; 310 K): (1.782 ± 0.036) × 10^3 M^−1; Binding distance/r ([3]; modelling table): 2.954; Number of binding sites/n ([3]; modelling table): 0.713 |
